Results taken from patent publication US20240368150A1 (Hoffmann-La Roche Inc., priority 2021, published 2024).
Where two headings read alike, the source gives them in different places.

Tests used:
[1] = test system: primary human T-cells; test: Proliferation assay after 5 days (CellTiter-Glo, CD3 stimulation; PBS counter screen); assay type: cell-based; conditions: CD3 stimulation; for Emax / Emax proliferation (% activation): 5 days, normalized to reference compound A1 as stimulator control = 100%, DMSO neutral control; for Emax: read-out: Emax proliferation (% activation); for EC50: primary human T-cells, CellTiter-Glo after 5 days, EC50 of fitted sigmoidal curve, read-out: Tcell Proliferation CD3 EC50
Outline: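 Compounds were added to medium-only plates, and proliferation was read 5 days later as luminescence from CellTiter-Glo 2.0, whose ATP signal is proportional to cell number. Plates and reagent were equilibrated to room temperature for 45 min before an equal volume of reagent was added, with 15 min rocking.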

[2] = test system: primary human T-cells

| Compound | EC50 [2] [µM] | Emax ([1]; Homo sapiens, T-cell, 120 h) [%] | EC50 ([1]; Homo sapiens, T-cell, 120 h) [µM] | Emax proliferation (% activation) [1] [% activation] | EC50 [1] [µM] |
| --- | --- | --- | --- | --- | --- |
| CC(C)(C)NC(=O)c1nc(-c2cc3c(cc2F)S(=O)(=O)C[C@H](N)C(=O)N3Cc2ccc(OC(F)(F)F)cc2)no1 [Example 330, 3-[(3R)-3-amino-8-fluoro-1,1,4-trioxo-5-[[4-(trifluoromethoxy)phenyl]methyl]-2,3-dihydro-1λ^6,5-benzothiazepin-7-yl]-N-tert-butyl-1,2,4-oxadiazole-5-carboxamide] | 1.83 | 132 | 0.291 |  |  |
| COC(=O)N1CC2CC(c3nc(-c4cc5c(cc4F)S(=O)(=O)C[C@H](N)C(=O)N5Cc4ccc(OC(F)(F)F)cc4)no3)(C2)C1 [Example 335, methyl 1-[3-[(3R)-3-amino-8-fluoro-1,1,4-trioxo-5-[[4-(trifluoromethoxy)phenyl]methyl]-2,3-dihydro-1λ^6,5-benzothiazepin-7-yl]-1,2,4-oxadiazol-5-yl]-3-azabicyclo[3.1.1]heptane-3-carboxylate] | 0.819 | 161 |  |  |  |
| COC(=O)N1CC2CC(c3nc(-c4cc5c(cc4F)[S+]([O-])C[C@H](N)C(=O)N5Cc4ccc(OC(F)(F)F)cc4)no3)(C2)C1 (stereo partly drawn) [Example 336, methyl 1-[3-[(3R)-3-amino-8-fluoro-1,4-dioxo-5-[[4-(trifluoromethoxy)phenyl]methyl]-2,3-dihydro-1λ^4,5-benzothiazepin-7-yl]-1,2,4-oxadiazol-5-yl]-3-azabicyclo[3.1.1]heptane-3-carboxylate] | 7.02 |  |  | 114 | 1.1 |
| COC(=O)N1CC2CC(c3nc(-c4cc5c(cc4F)[S+]([O-])C[C@H](N)C(=O)N5Cc4ccc(OC(F)(F)F)cc4)no3)(C2)C1 (stereo partly drawn) [Example 337, methyl 1-[3-[(3R)-3-amino-8-fluoro-1,4-dioxo-5-[[4-(trifluoromethoxy)phenyl]methyl]-2,3-dihydro-1λ^4,5-benzothiazepin-7-yl]-1,2,4-oxadiazol-5-yl]-3-azabicyclo[3.1.1]heptane-3-carboxylate] | 5.95 |  |  | 92 | 2.27 |
| COC(F)(c1nc(-c2cc3c(cc2F)[S+]([O-])C[C@H](N)C(=O)N3Cc2ccc(Cl)cc2)no1)C(F)(F)F (stereo partly drawn) [Example 338, (3R)-3-amino-5-[(4-chlorophenyl)methyl]-8-fluoro-1-oxo-7-[5-(1,2,2,2-tetrafluoro-1-methoxy-ethyl)-1,2,4-oxadiazol-3-yl]-2,3-dihydro-1λ^4,5-benzothiazepin-4-one] | 1.58 | 137 | 0.282 |  |  |
| CC(C)Oc1ccc(CN2C(=O)[C@@H](N)CS(=O)(=O)c3cc(F)c(-c4noc(C5CN(C)CC(F)(F)C5)n4)cc32)nc1 (stereo partly drawn) [Example 346, (3R)-3-amino-7-[5-(5,5-difluoro-1-methyl-3-piperidyl)-1,2,4-oxadiazol-3-yl]-8-fluoro-5-[(5-isopropoxy-2-pyridyl)methyl]-1,1-dioxo-2,3-dihydro-1λ^6,5-benzothiazepin-4-one] | 5.73 | 100 | 5.65 |  |  |
| CC(C)Oc1ccc(CN2C(=O)[C@@H](N)CS(=O)(=O)c3cc(F)c(-c4noc(C5CN(C)CC(F)(F)C5)n4)cc32)cn1 (stereo partly drawn) [Example 347, (3R)-3-amino-7-[5-(5,5-difluoro-1-methyl-3-piperidyl)-1,2,4-oxadiazol-3-yl]-8-fluoro-5-[(6-isopropoxy-3-pyridyl)methyl]-1,1-dioxo-2,3-dihydro-1λ^6,5-benzothiazepin-4-one] | 3.5 | 151 | 0.977 |  |  |
| CN(C)C(=O)c1nc(-c2cc3c(cc2F)S(=O)(=O)C[C@H](N)C(=O)N3Cc2ccc(OC(F)(F)C(F)F)cc2)no1 [Example 352, 3-[(3R)-3-amino-8-fluoro-1,1,4-trioxo-5-[[4-(1,1,2,2-tetrafluoroethoxy)phenyl]methyl]-2,3-dihydro-1λ^6,5-benzothiazepin-7-yl]-N,N-dimethyl-1,2,4-oxadiazole-5-carboxamide] | 5.74 | 100 | 0.768 |  |  |
| CC(C)(C)c1nc(-c2cc3c(cc2F)S(=O)(=O)C[C@H](N)C(=O)N3Cc2ccc(OCC3CCOCC3)cc2)no1 [Example 353, (3R)-3-amino-7-(5-tert-butyl-1,2,4-oxadiazol-3-yl)-8-fluoro-1,1-dioxo-5-[[4-(tetrahydropyran-4-ylmethoxy)phenyl]methyl]-2,3-dihydro-1λ^6,5-benzothiazepin-4-one] | 3.25 | 108 | 7.24 |  |  |
| CC(C)(C)NC(=O)c1nc(-c2ccc3c(c2)N(Cc2ccc(Cl)cc2)C(=O)[C@@H](N)CS3(=O)=O)no1 [Example 354, 3-[(3R)-3-amino-5-[(4-chlorophenyl)methyl]-1,1,4-trioxo-2,3-dihydro-1λ^6,5-benzothiazepin-7-yl]-N-tert-butyl-1,2,4-oxadiazole-5-carboxamide] | > 10 | 77 | 4.71 |  |  |
| CC(C)(C)NC(=O)c1nc(-c2ccc3c(c2)N(Cc2ccc(OC(F)(F)F)cc2)C(=O)[C@@H](N)CS3(=O)=O)no1 [Example 355, 3-[(3R)-3-amino-1,1,4-trioxo-5-[[4-(trifluoromethoxy)phenyl]methyl]-2,3-dihydro-1λ^6,5-benzothiazepin-7-yl]-N-tert-butyl-1,2,4-oxadiazole-5-carboxamide] | 6.05 | 65 | 1.62 |  |  |
| CC(C)(F)c1nc(-c2cc3c(cc2F)S(=O)(=O)C[C@H](N)C(=O)N3Cc2ccc(F)cc2)no1 [Example 358, (3R)-3-amino-8-fluoro-7-[5-(1-fluoro-1-methyl-ethyl)-1,2,4-oxadiazol-3-yl]-5-[(4-fluorophenyl)methyl]-1,1-dioxo-2,3-dihydro-1λ^6,5-benzothiazepin-4-one] | 9.45 | 127 | 1.86 |  |  |
| CC(N)(c1nnc(-c2ccc3c(c2)N(Cc2ccc(Cl)cc2)C(=O)[C@@H](N)CS3(=O)=O)o1)C(F)(F)F (stereo partly drawn) [Example 362, (3R)-3-amino-7-[5-(1-amino-2,2,2-trifluoro-1-methyl-ethyl)-1,3,4-oxadiazol-2-yl]-5-[(4-chlorophenyl)methyl]-1,1-dioxo-2,3-dihydro-1λ^6,5-benzothiazepin-4-one] | 1.73 | 84 | 3.72 |  |  |

Continued, in another order:

| EC50 [2] [µM] | Compound | Emax ([1]; Homo sapiens, T-cell, 120 h) [%] | EC50 ([1]; Homo sapiens, T-cell, 120 h) [µM] | Emax proliferation (% activation) [1] [% activation] | EC50 [1] [µM] |
| --- | --- | --- | --- | --- | --- |
| 0.747 | N[C@H]1CS(=O)(=O)c2cc(F)c(-c3noc(C4(CO)CCCO4)n3)cc2N(Cc2ccc(OC(F)(F)F)cc2)C1=O (stereo partly drawn) [Example 332, (3R)-3-amino-8-fluoro-7-[5-[2-(hydroxymethyl)tetrahydrofuran-2-yl]-1,2,4-oxadiazol-3-yl]-1,1-dioxo-5-[[4-(trifluoromethoxy)phenyl]methyl]-2,3-dihydro-1λ^6,5-benzothiazepin-4-one] | 128 | 0.815 |  |  |
| 0.714 | N[C@H]1CS(=O)(=O)c2cc(F)c(-c3noc(C4(N)COC4)n3)cc2N(Cc2ccc(OC(F)(F)F)cc2)C1=O [Example 333, (3R)-3-amino-7-[5-(3-aminooxetan-3-yl)-1,2,4-oxadiazol-3-yl]-8-fluoro-1,1-dioxo-5-[[4-(trifluoromethoxy)phenyl]methyl]-2,3-dihydro-1lambda6,5-benzothiazepin-4-one] | 94 | 1.22 |  |  |
| 0.239 | Cc1nnc(-c2nc(-c3cc4c(cc3F)S(=O)(=O)C[C@H](N)C(=O)N4Cc3ccc(OC(F)(F)F)cc3)no2)o1 [Example 334, (3R)-3-amino-8-fluoro-7-[5-(5-methyl-1,3,4-oxadiazol-2-yl)-1,2,4-oxadiazol-3-yl]-1,1-dioxo-5-[[4-(trifluoromethoxy)phenyl]methyl]-2,3-dihydro-1λ^6,5-benzothiazepin-4-one] | 80 | 0.345 |  |  |
| 0.473 | N[C@H]1CS(=O)(=O)c2cc(F)c(-c3noc(C4(C(F)(F)F)CC4)n3)cc2N(Cc2ccc(OC(F)(F)F)cc2)C1=O [Example 344, (3R)-3-amino-8-fluoro-1,1-dioxo-5-[[4-(trifluoromethoxy)phenyl]methyl]-7-[5-[1-(trifluoromethyl)cyclopropyl]-1,2,4-oxadiazol-3-yl]-2,3-dihydro-1λ^6,5-benzothiazepin-4-one] | 120 | 0.0697 |  |  |
| 1.33 | COC(=O)N1CCC(c2nc(-c3cc4c(cc3F)S(=O)(=O)C[C@H](N)C(=O)N4Cc3ccc(OC(C)C)cc3)no2)C1 (some centres unmarked) [Example 349] | 124 | 0.399 |  |  |
| 0.288 | COC(F)(c1nc(-c2cc3c(cc2F)S(=O)(=O)C[C@H](N)C(=O)N3Cc2ccccc2)no1)C(F)(F)F (stereo partly drawn) [Example 351, (3R)-3-amino-5-benzyl-8-fluoro-1,1-dioxo-7-[5-(1,2,2,2-tetrafluoro-1-methoxy-ethyl)-1,2,4-oxadiazol-3-yl]-2,3-dihydro-1λ^6,5-benzothiazepin-4-one] | 107 | 0.113 |  |  |
| 0.208 | C#CCC(C)(C)c1nnc(-c2cc3c(cc2F)S(=O)(=O)C[C@H](N)C(=O)N3Cc2ccc(C3(C(F)(F)F)N=N3)cc2)o1 [Example 359, (3R)-3-amino-7-[5-(1,1-dimethylbut-3-ynyl)-1,3,4-oxadiazol-2-yl]-8-fluoro-1,1-dioxo-5-[[4-[3-(trifluoromethyl)diazirin-3-yl]phenyl]methyl]-2,3-dihydro-1λ^6,5-benzothiazepin-4-one] | 115 | 0.0817 |  |  |
| 0.922 | CC(C)(C)c1nnc(-c2ccc3c(c2)N(Cc2ccc(OC(F)(F)F)cc2)C(=O)[C@@H](N)CS3(=O)=O)o1 [Example 360, (3R)-3-amino-7-(5-tert-butyl-1,3,4-oxadiazol-2-yl)-1,1-dioxo-5-[[4-(trifluoromethoxy)phenyl]methyl]-2,3-dihydro-1λ^6,5-benzothiazepin-4-one] | 103 | 0.384 |  |  |
